Each block holds one compound with its values, some of them ahead of it. *1 amine or outer side, *2 acyl side, *3 side chain or, on linkers, in order; H or OH if unused. Where a SMILES comes first, the peptide text is derived from it. Bridges are numbered along the chain shown (N, C = ends). Roman numbers before positions name the chains, in order. [ ]: non-standard residue; d: D form. Actinocin(9to1) = Cc1c2oc3c(C)ccc(C(=O)[*:1])c3nc-2c(C(=O)[*:2])c(N)c1=O; NMeV = CN[C@H](C(=O)O)C(C)C; Sar = CNCC(=O)O
Key:
Assay type in all cases: cell-based, human
LC3B (autophagy marker) = assay: Cellular fingerprint assay (Luminex): LC3B; conditions: 24 h
Experimental: (§1) To measure intracellular drug response markers, HepG2 cells cultivated in standard medium containing FBS, Advanced DMEM/F12 or TCM® Serum Replacement were seeded in 384-well plates and incubated for 24 h. After incubation, cells were treated with selected MIP-DILI compounds or negative controls in a three-fold dilution series performed in triplicates using the Tecan 300e Dispenser ([Dragovic et al., 2016]). Additionally, cells were treated with assay specific control substances (see Supplementary Table S2). Treatment was performed for 24 h. After treatment, media was carefully aspirated und cells were lysed by adding 40 µL lysis buffer (Supplementary Table S3) to each well. The plates were incubated for 30 min at 4°C and either stored at −80°C or used immediately.
(§2) Intracellular drug response markers were assessed using the Luminex technology. Color-coded beads from NMI specific for one analyte each were used to qualify and quantify p-serin 10 of Histon H3 (cell division marker), LC3B (autophagy marker), PARP (cell death/apoptosis marker), HSP70 (stress response marker), p-serin 2/5 of RNA-Polymerase II (protein transcription marker), p-serin 422 of EIF4B (protein synthesis marker) and HIF1-alpha (oxidative stress marker).
(§3) For hybridization, 25 μL cell lysate of each sample was transferred to a fresh 384-well plate. […]

[1] = system: PARP (cell death/apoptosis marker); assay: Cellular fingerprint assay (Luminex): PARP; conditions: 24 h
Experimental: as §1, §2
(§4) For hybridization, 25 μL cell lysate of each sample was transferred to a fresh 384-well plate. 25 μL prepared bead mix and 25 µL assay buffer were added and the plate was sealed. Plates were incubated for 16–20 h at 4°C and 600 rpm. The TS Pro thermal plate shaker from CellMedia was used for all incubation steps.
(§5) After incubation the plates were washed and successively incubated with 15 µL detection antibody (1 h, RT, 650 rpm) and 15 µL streptavidin, R-phycoerythrin conjugate (SAPE; 45 min, RT, 650 rpm). After each step, the plates were washed three times with wash buffer. Before measurement, 90 µL assay buffer was added to each well and the plates were incubated for 10 min at RT and 700 rpm. Measurement was performed using the Luminex™ FlexMAP 3D from ThermoFisher.

p-serin 422 of EIF4B = assay: Cellular fingerprint assay (Luminex): EIF4B; conditions: 24 h; all culture conditions (amiodarone: highest concentration)
Experimental: as §1, §2, §3

[2] = system: p-serin 2/5 of RNA-Polymerase II; assay: Cellular fingerprint assay (Luminex): RNA Pol II; conditions: 24 h
Experimental: as §1, §2, §4, §5

[3] = system: HSP70 (stress response marker); assay: Cellular fingerprint assay (Luminex): HSP70; conditions: 24 h
Experimental: as §1, §2, §4, §5

[4] = system: GSH content of HepG2 cells; assay: GSH-Glo glutathione assay (oxidative stress); conditions: 24 h
Experimental: To assess oxidative stress in cells in response to compound treatment, the GSH-Glo™ Glutathione Assay from Promega was used according to manufacturer’s instructions (V6912). HepG2 cells cultivated in standard medium containing FBS, Advanced DMEM/F12 or TCM® Serum Replacement were seeded in 384-well plates, incubated for 24 h, and subsequently treated with the MIP-DILI reference compounds, negative controls, or internal controls in a three-fold dilution series performed in triplicates using the Tecan 300e Dispenser ([Dragovic et al., 2016]). Treatment was performed for 24 h.
Assay reagents and plates were first equilibrated to room temperature. GSH-Glo™ Reagent 1x was obtained by diluting Luciferin-NT substrate and Glutathione S-Transferase 1:100 in GSH-Glo™ Reaction Buffer. Luciferin Detection reagent was dissolved in Reconstitution Buffer with Esterase.
The medium was aspirated, GSH-Glo™ Reagent 1x was added to the cells and plates were shaken for 2 min and subsequently incubated for 30 min at room temperature protected from light. Afterwards, reconstituted Luciferin Detection Reagent was added, and cells were again shaken for 2 min before incubation for 15 min at room temperature in the dark. Luminescence was measured using the Varioskan Plate Reader from Thermo Fisher.

[5] = system: HIF1-alpha (oxidative stress marker); assay: Cellular fingerprint assay (Luminex): HIF-1-alpha; conditions: 24 h
Experimental: as §1, §2, §4, §5

HepG2 cells [6] = assay: Mitochondrial toxicity assay (Glucose/Galactose assay); conditions: HepG2 cultured in Advanced DMEM/F12; 2 h treatment
Experimental: To assess mitochondrial toxicity, the Glucose/Galactose Assay was used. HepG2 cells cultivated in standard medium containing FBS, Advanced DMEM/F12 or TCM® Serum Replacement were seeded in 384-well plates and incubated for 48 h. Cells were washed once, and subsequently switched to DMEM (ThermoFisher, 11966025) supplemented with sodium pyruvate, HEPES and either 25 mM D-glucose or 10 mM D-galactose without FBS to avoid residual glucose. Cells were pre-incubated for 4 h before treatment with the MIP-DILI reference compounds, negative controls or internal controls ([Dragovic et al., 2016]). Treatment was performed in a three-fold dilution series in triplicates using the Tecan 300e Dispenser. Cells were treated for 2 h, and the read-out was performed by measuring cell viability using the CellTiter-Glo® reagent as described previously. IC50 values were obtained from dose response curves in GraphPad Prism using a log(inhibitor) vs. response model (variable slope, four parameters, bottom constraint = 0). Mitochondrial toxicity was assessed by calculating the IC50Glc/IC50Gal ratio and the threshold for risk for mitochondrial toxicity was set at >2.

HepG2 cells [7] = assay: Cellular fingerprint assay: overall marker response / cell death; conditions: 24 h
Experimental: as §1, §2, §3

[8] = highest concentration, across all media
[9] = all culture conditions (amiodarone: highest concentration)
[10] = comparable results for all culture conditions

SMILES: CO/C1=C\C(C)=C\[C@@H](C)[C@@H](O)[C@@H](C)C/C(C)=C/C=C/[C@H](OC)[C@@H]([C@@H](C)[C@@H](O)[C@H](C)[C@@]2(O)C[C@@H](O)[C@H](C)[C@@H](C(C)C)O2)OC1=O [bafilomycin, Bafilomycin A1]
LC3B levels (LC3B (autophagy marker); similar response in all culture conditions): strong increase in LC3B levels

RNA Pol II levels [2, 9]: decrease
SMILES: CCCCc1oc2ccccc2c1C(=O)c1cc(I)c(OCCN(CC)CC)c(I)c1 [Amiodarone]
PARP levels [1, 8]: elevated PARP levels
EIF4B levels (p-serin 422 of EIF4B): decrease
LC3B levels (LC3B (autophagy marker); second highest concentration, similar in all conditions): elevated LC3B levels
HSP70 levels [3, 8]: decrease

SMILES: O=C(O)Cc1ccccc1Nc1c(Cl)cccc1Cl [Diclofenac]
changes in GSH [4, 10]: viability dependent changes in GSH

SMILES: COC1=C2C[C@@H](C)C[C@H](OC)[C@H](O)[C@@H](C)/C=C(\C)[C@H](OC(N)=O)[C@@H](OC)/C=C\C=C(/C)C(=O)NC(=CC1=O)C2=O [geldanamycin, Geldanamycin]
fold change (response, Figure 7B) ([3]; Advanced DMEM/F12): 20.6
fold change (response, Figure 7B) ([3]; TCM): 8.7
fold change (response, Figure 7B) ([3]; standard medium): 7.4

SMILES: CC(=O)N(O)CCCCCNC(=O)CCC(=O)N(O)CCCCCNC(=O)CCC(=O)N(O)CCCCCN [deferoxamine, Deferoxamin Mesylat]
PARP level ([1]; serum-free media): not observed
PARP level ([1]; standard medium): increased PARP level
HIF-1-alpha levels ([5]; Advanced DMEM/F12, treated vs. untreated cells): no significant increase in HIF-1-alpha levels
HIF-1-alpha levels ([5]; TCM): elevated HIF-1-alpha levels
HIF-1-alpha levels ([5]; standard medium): elevated HIF-1-alpha levels

SMILES: C1CCC(C(CC2CCCCN2)C2CCCCC2)CC1 (stereo not shown) [Perhexiline]
PARP level ([1]; Advanced DMEM/F12 only): significant increase in PARP
changes in GSH [4, 10]: viability dependent changes in GSH
mitochondrial toxicity call (IC50Glc/IC50Gal fold change vs two-fold threshold) (HepG2 cells [6]): identified as a potential mitochondrial toxin
concentrations at which cell death occurred (HepG2 cells [7]; multiple markers drastically reduced or below detection limit): ≥ 16.7 µM

SMILES: O=C1CC2(CCCC2)CC(=O)N1CCCCN1CCN(c2ncccn2)CC1 [Buspirone]
changes in GSH [4, 10]: viability dependent changes in GSH

SMILES: CCCCS(=N)(=O)CCC(N)C(=O)O (stereo not shown) [Buthionine sulfoximine (BSO), Buthionine sulfoximine]
changes in GSH ([4]; independently from viability, less profound in serum-free media): strong decrease in GSH

SMILES: C/C=C(/C)C(=O)O[C@H]1C(C)=C2[C@H]([C@@H]1OC(=O)CCCCCCC)[C@@](C)(OC(C)=O)C[C@H](OC(=O)CCC)[C@@]1(O)[C@H]2OC(=O)[C@@]1(C)O [Thapsigargin]
changes in GSH ([4]; at low concentrations, increase significantly lower in both serum-free media): increase in GSH

SMILES: CCc1nn(CCCN2CCN(c3cccc(Cl)c3)CC2)c(=O)n1CCOc1ccccc1 [Nefazodone]
changes in GSH [4, 10]: viability dependent changes in GSH

SMILES: CC(=O)O[C@H]1C(=O)[C@@]2(C)[C@H]([C@H](OC(=O)c3ccccc3)[C@]3(O)C[C@H](OC(=O)[C@H](O)[C@@H](NC(=O)c4ccccc4)c4ccccc4)C(C)=C1C3(C)C)[C@]1(OC(C)=O)CO[C@@H]1C[C@@H]2O [Paclitaxel]
changes in GSH ([4]; at high concentrations, increase significantly lower in both serum-free media): increase in GSH

SMILES: Cc1c2oc3c(C)ccc(C(=O)N[C@@H]4C(=O)N[C@H](C(C)C)C(=O)N5CCC[C@H]5C(=O)N(C)CC(=O)N(C)[C@@H](C(C)C)C(=O)O[C@@H]4C)c3nc-2c(C(=O)N[C@@H]2C(=O)N[C@H](C(C)C)C(=O)N3CCC[C@H]3C(=O)N(C)CC(=O)N(C)[C@@H](C(C)C)C(=O)O[C@@H]2C)c(N)c1=O [actinomycin D, Actinomycin D] (I: T[dV]P[Sar][NMeV] / II: T[dV]P[Sar][NMeV]; ester I:1-I:C, II:1-II:C; linker I:N-II:N via Actinocin(9to1))
fold change (response, Figure 7C) ([1]; Advanced DMEM/F12): 11.3
fold change (response, Figure 7C) ([1]; TCM): 6.6
fold change (response, Figure 7C) ([1]; standard medium): 3.1
EIF4B levels (p-serin 422 of EIF4B): significant decrease
RNA Pol II levels [2, 9]: significant decrease

SMILES: CN(C)C(=N)N=C(N)N [Metformin]
RNA Pol II levels ([2]; highest concentration tested, Advanced DMEM/F12): slight decrease
elevation of intracellular drug response markers (HepG2 cells [7]; all seven markers): did not result in elevated markers
